{
  "source": "patent US11684660B2",
  "about": "“Human PD1 peptide vaccines and uses thereof” (OHIO STATE INNOVATION FOUNDATION, priority 2017, dated 2023)",
  "key": {"[1]": {"test_system": "murine colon carcinoma CT26 tumor cells", "experiment": "CT26 tumor challenge in Balb/c mice immunized with PD-1 constructs", "assay_type": "in vivo", "description": "Immunocompetent Balb/c mice of 6-8 weeks of age were purchased from Charles River Laboratories, Wilmington, Mass. and housed in The Ohio State University's University Laboratory Animal Resources (ULAR) facilitates. Isoflurane was used to anaesthetize the animals before cells injection and termination. Pre-immune sera samples were taken from the mice then they were immunized with 100 μg of peptide emulsified in Montanide ISA 720 (Seppic, Paris, France) and nor-MDP adjuvant (N-acetyl-glucosamine-3 yl-acetyl L-alanyl-D-isoglutamine). Mice received booster immunizations 3 and 6 weeks after the first. Several test sera samples were taken from the mice (FIG. 8).\n10 days after the second boost, mice were inoculated with […] murine colon carcinoma CT26 tumor cells subcutaneous on the right flank. Tumor growth was monitored three times a week and sera samples were taken weekly and upon sacrifice of the animal. Control mice on day 0 were engrated with 1×10^5 CT26 tumor cells subcutaneous and received. The animals received 150 μg injections of anti-mouse antibodies directed against PD-1. Mice were monitored and scored for the formation of palpable tumors twice weekly and sacrificed if tumors became necrotic or exceeded the predetermined size of 2,000 mm3. Tumor diameters were measured twice a week. Tumor size was calculated according to the formula: V=[(length ×width2)/2]. Tumor volumes were measured in cubic millimeters with calipers and calculated with the following formula: A×B2×0.5, where A is the largest diameter, and B is the smallest diameter. All experiments were performed in accordance with the U.S. Public Health Service Policy on Humane Care and Use of Laboratory Animals and approved by the Ohio State University Institutional Animals Care and Use Committee and detailed in the accepted protocol\nTo assess performance of 4 different vaccine treatments on tumor growth, tumor size was measured periodically in mice, and the results were compared to those of positive and negative controls. There were 5 mice in each treatment group, each receiving the assigned MVF-peptide and then being inoculated with 1e5 CT26 (colon) tumor cells 10 days after the final boost of the treatment. Day 14 was considered the primary time point of interest, as the investigators believed waiting until day 19 allowed the tumors too much time to grow, resulting in similar sizes at that point of the experiment. Tumor size was measured in three ways: LWW (½*length*width*width) at all time points, LWH (½*length*width*height) at all time points, and terminal tumor weight at the end of the study. The mice treated with MVF-PD-a(45), group C, were sacrificed before day 19 due to the death of one mouse, so the comparisons can only be made between tumor size at day 14. Tumor size is in units of mm3 for LWW and LWH and grams for terminal tumor weight.\nDue to small sample sizes in each group and inability to assume normality, the exact Wilcoxon rank-sum test was used to check for systematic differences between the distributions of tumor size at times 14 days and 19 days (FIGS. 12A-D and Tables 7-10). P-values given are for test comparing that column's control to the respective treatment, and are two-sided to account for the possibility of tumor size being systematically larger or smaller between treatment and control. As this is preliminary data, the p-values are not adjusted for multiple comparisons. Overall, there were few instances of significant differences between the distributions of a control and a treatment.\nImmunocompetent Balb/c mice (5 mice/gp) of 6-8 weeks of age were immunized with 100 μg of peptide emulsified in Montanide ISA 720 (Seppic, Paris, France) and nor-MDP adjuvant (N-acetyl-glucosamine-3 yl-acetyl L-alanyl-D-isoglutamine). […]"}, "[2]": {"test_system": "CD4+CD25+FoxP3+ Tregs", "experiment": "Immune-profiling of T cells in spleen and tumor by flow cytometry", "assay_type": "in vivo, Balb/c mice", "description": "CD4 and CD8 cells were determined by flow cytometry (gated on CD45+CD3+ cells). Foxp3+CD25+CD4 T regulatory cells were determined by intracellular staining. All CD4 and CD8 T cells were gated on CD45+CD3+ cells. Tregs were gated on CD45+CD3+CD4+ cells. Group A=control peptide, Group B=32-50; Group C=45-64; Group D=73-90; Group E=92-110; Group F=α-mouse PD-1 (positive control).\nThe tumor and tumor draining lymph nodes were collected for subsequent FACS analysis to study the immune response in mice. Cells suspensions were prepared from tissues either by mechanistic dissociation or by enzymatic digestion. The stained cells were analyzed with a LSR II flow cytometer (BD Biosciences) equipped with 3 excitation lasers at wavelengths 405, 488 and 633 nm. CD8+ T cells and CD4+CD25+ T cells from tumor leucocytes were purified either on a MACS column or FACSAria.\nFlow cytometric analysis was performed to evaluate the expression of surface markers (CD45, CD3, CD4, CD8 and CD25) and transcription factor FoxP3 in splenocytes and tumor infiltrating T cells. Briefly, spleens were removed from mice and pressed through cell strainers, followed by a short incubation with red blood cells lysis buffer to lyse the red blood cells. Cells were then collected, washed, and resuspended in staining buffer (1% BSA in PBS). Similarly, tumors were removed from mice and pressed through cell strainers, followed by one wash with 37% percoll. The tumor cells were then washed with PBS and resuspended in staining buffer. The splenocytes and tumor cells were incubated with mAbs to the cell-surface markers for 30 min at 4° C. After washing twice with staining buffer, cells were fixed and permeabilized using Cytofix/Cytoperm solution for 60 min at 4° C. Cells were stained for FoxP3 for 30 min at 4° C. 80,000-100,000 live cell events were acquired on a FACSCanto (BD) and analyzed using FlowJo software (Tree Star, Inc.). To differentiate infiltrating cells from tumor cells, the tumor cells were first gated on CD45+ cells. Then the CD3+CD4+ and CD3+CD8+ cells were analyzed. Tregs were represented by CD4+CD25+FoxP3+ cells. […] Group E had the lowest Treg."}, "[3]": {"target": "T1, extracellular domain of human PD-L1 (hPD-L1) (Homo sapiens, UniProt Q9NZQ7)", "T1 construct": "Recombinant hPD-L1 ectodomain was immobilized onto the gold surface of a CM5 sensor chip", "T1 sequence (Q9NZQ7 19-238 limits assumed)": "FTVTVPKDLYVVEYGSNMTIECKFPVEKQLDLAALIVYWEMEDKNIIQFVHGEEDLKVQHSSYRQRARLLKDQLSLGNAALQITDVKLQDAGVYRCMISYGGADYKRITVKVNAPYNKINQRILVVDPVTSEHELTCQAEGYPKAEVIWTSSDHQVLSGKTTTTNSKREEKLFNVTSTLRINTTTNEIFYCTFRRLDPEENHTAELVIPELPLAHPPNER", "experiment": "BIACORE SPR binding to immobilized rhPD-L1", "conditions": "1 μM peptide", "description": "To test the activity of all the selected peptides, surface plasmon resonance (SPR) spectroscopy (BIACORE™ T200, at […]) was used to measure their binding affinities to the extracellular domain of human PD-L1 (hPD-L1). Recombinant hPD-L1 ectodomain was immobilized onto the gold surface of a CM5 sensor chip by direct amine coupling.\n1 μM BSA was used as the negative control. The chip was regenerated by 10 mM Glycine-HCl, pH 2.5(FIG. 3E).\n1 μM of various PD-1 peptides were injected over the chip for 1 min at 10 μl/min followed by 1 min dissociation and then 1 min regeneration with 10 mM Glycine-HCl, pH 2.5 for each run."}},
  "note": "No end group written: not given here.",
  "data": [
    {"substance": "KLLSLIKGVIVHRLEGVE-GPSL-GAISLAPKAQIKESLRAEL-CONH2 (KLLSLIKGVIVHRLEGVEGPSLGAISLAPKAQIKESLRAEL-NH2) [MVF-PD-1 (92-110)]", "values": [
      {"measurement": "inhibition of tumor growth", "setting": "[1]; Day 14, FIG. 15", "result": "significant inhibition of tumor growth"},
      {"measurement": "median terminal tumor weight", "setting": "[1]; end of study, 5 mice/group", "result": 1.1, "unit": "grams"},
      {"measurement": "difference in tumor size distribution versus controls", "setting": "[1]; exact Wilcoxon rank-sum test, two-sided, unadjusted", "result": "systematically smaller tumor sizes than the positive control"},
      {"measurement": "median tumor size LWH, Day 19", "setting": "[1]; median, 5 mice/group", "result": 819, "unit": "mm3"},
      {"measurement": "median tumor size LWW, Day 19", "setting": "[1]; median, 5 mice/group", "result": 1080, "unit": "mm3"},
      {"measurement": "median tumor size LWH, Day 14", "setting": "[1]; median, 5 mice/group, ½*length*width*height", "result": 270, "unit": "mm3"},
      {"measurement": "median tumor size LWW, Day 14", "setting": "[1]; median, 5 mice/group, ½*length*width*width", "result": 384, "unit": "mm3"},
      {"measurement": "Treg population in spleen compared to Group A (negative control)", "setting": "[2]; splenocytes, FIG. 10A", "result": "increased Treg population"},
      {"measurement": "Tregs in tumor", "setting": "[2]; tumor infiltrating cells, FIG. 10B", "result": "lowest Treg"},
      {"measurement": "binding to immobilized rhPD-L1 (in words)", "setting": "[3]", "result": "bind"},
      {"measurement": "SPR response of peptide binding to immobilized rhPD-L1", "setting": "[3]; 1 min at 10 μl/min", "result": "around 110 RU"}
    ]}
  ]
}
